Patent US20040171489A1, “Synergistic active compound combinations for controlling harmful plants” (priority 1998, published 2004)
Counter-ions that a name gives are not always drawn.

What was measured:
[1] = system: corn which is glufosinate-ammonium-resistant; assay: Example 18 field trial, 3-leaf stage: crop damage; format: in vivo, Corn (LL); details: 31 days after application
Description: The damage and development of all above-ground parts of the plants were recorded.
Crop plants were grown outdoors on plots under natural outdoor conditions, and seeds or rhizome pieces of typical harmful plants were laid out or the natural weed growth was utilized.

Elusine indica = assay: Example 18 field trial, 3-leaf stage: herbicidal effect; format: in vivo; details: 31 days after application
Description: (§1) The herbicidal efficacy of the active compounds or active compound mixtures was scored visually using the treated plots in comparison to untreated control plots. The damage and development of all above-ground parts of the plants were recorded. Scoring was carried out using a percentage scale (100% effect=all plants killed; 50% effect=50% of the plants and the green parts of the plants killed; 0% effect=no noticeable effect=like control plot. The scores of in each case 4 plots were averaged.
(§2) If the observed activity values already exceed the formal sum of the values for the trials with the individual applications, they also exceed the expected value according to Colby which is calculated using the following formula and which is likewise considered to be an indication of synergism (cf. S. R. Colby; in Weeds 15 (1967) p. 20 to 22):
(§3) Crop plants were grown outdoors on plots under natural outdoor conditions, and seeds or rhizome pieces of typical harmful plants were laid out or the natural weed growth was utilized. Treatment with the compositions according to the invention was carried out after the harmful plants had emerged and the crop plants were, generally, at the 2- to 4-leaf stage; in some cases (as stated), application of individual active compounds or active compound combinations was carried out pre-emergence (cf. Section 1) or post-emergence (cf. Section 2) or as a sequential treatment partly pre-emergence and/or post-emergence. After the application, for example 2, 4, 6 and 8 weeks after the application, the effect of the preparations was scored visually by comparison with untreated controls (cf. scoring in Section 1). In the field trial as well, the compositions according to the invention have synergistic herbicidal activity against a broad spectrum of economically important weed grasses and broad-leaved weeds. […] Moreover, the effects in essential phases of the scoring period were above the expected values according to Colby, also indicating synergism. […]

winter barley [2] = assay: Example 1 field trial, 2-4 leaf stage: crop damage; format: in vivo, Hordeum vulgare; details: 28 days after application
Description: as §1, §2
(§4) Crop plants were grown outdoors on plots under natural outdoor conditions, and seeds or rhizome pieces of typical harmful plants were laid out or the natural weed growth was utilized. Treatment with the compositions according to the invention was carried out after the harmful plants had emerged and the crop plants were, generally, at the 2- to 4-leaf stage; in some cases (as stated), application of individual active compounds or active compound combinations was carried out pre-emergence (cf. Section 1) or post-emergence (cf. Section 2) or as a sequential treatment partly pre-emergence and/or post-emergence. After the application, for example 2, 4, 6 and 8 weeks after the application, the effect of the preparations was scored visually by comparison with untreated controls (cf. scoring in Section 1). In the field trial as well, the compositions according to the invention have synergistic herbicidal activity against a broad spectrum of economically important weed grasses and broad-leaved weeds. […] Moreover, the effects in essential phases of the scoring period were above the expected values according to Colby, also indicating synergism. In contrast, the crop plants were, as a consequence of the treatments with the herbicidal compositions, damaged only to a small degree, if at all.

Aphanes arvensis = assay: Example 4 field trial, application fall 2-4 leaf stage: herbicidal effect; format: in vivo; details: 100 g of ai/ha; 60 days after application
Description: as §1, §2
(§5) Crop plants were grown outdoors on plots under natural outdoor conditions, and seeds or rhizome pieces of typical harmful plants were laid out or the natural weed growth was utilized. […] After the application, for example 2, 4, 6 and 8 weeks after the application, the effect of the preparations was scored visually by comparison with untreated controls (cf. scoring in Section 1). […]

Veronica hederifolia = assay: as above; format: in vivo; details: 100 g of ai/ha; 60 days after application
Description: as §1, §2, §5

winter barley [3] = assay: Example 5 field trial, 2-4 leaf stage: crop damage; format: in vivo, Hordeum vulgare; details: 28 days after application
Description: as §1, §2, §3

winter wheat [4] = assay: Example 3 field trial, fall application 2-4 leaf stage: crop damage; format: in vivo, Triticum aestivum; details: 60 days after application
Description: as §1, §2, §5

Papaver rhoeas [5] = assay: Example 1 field trial, 2-4 leaf stage: herbicidal effect; format: in vivo; details: 28 days after application
Description: as §1, §2, §4

Viola arvensis [6] = assay: Example 3 field trial, fall application 2-4 leaf stage: herbicidal effect; format: in vivo; details: 60 days after application
Description: as §1, §2, §5

winter barley [7] = assay: Example 2 field trial, fall application 2-4 leaf stage: crop damage; format: in vivo, Hordeum vulgare; details: 45 days after the application
Description: as §1, §2, §5

Papaver rhoeas [8] = assay: Example 5 field trial, 2-4 leaf stage: herbicidal effect; format: in vivo; details: 28 days after application
Description: as §1, §2, §3

winter wheat [9] = assay: Example 4 field trial, application fall 2-4 leaf stage: crop damage; format: in vivo, Triticum aestivum; details: 100 g of ai/ha; 60 days after application
Description: as §1, §2, §5

Papaver rhoeas [10] = assay: Example 2 field trial, fall application 2-4 leaf stage: herbicidal effect; format: in vivo; details: 45 days after the application
Description: as §1, §2, §5

winter wheat [11] = assay: Example 10 pre-emergence application, fall: crop damage; format: in vivo, Triticum aestivum; details: winter wheat (Triticum aestivum), in vivo, 169 days
Text: (§6) Seeds or rhizome pieces of monocotyledonous and dicotyledonous weed plants are placed in sandy loam soil in pots and covered with soil. The compositions, formulated in the form of concentrated aqueous solutions, wettable powders or emulsion concentrates, are then applied to the surface of the soil cover as aqueous solution, suspension or emulsion at an application rate of 600 to 800 l of water/ha (converted), in various dosages. After the treatment, the pots are placed in a greenhouse and kept under good growth conditions for the weeds. After the test plants have emerged, the damage to the plants or the negative effects on the emergence is scored visually after a test period of 3 to 4 weeks by comparison with untreated controls. As shown by the test results, the compositions according to the invention have good herbicidal pre-emergence activity against a broad spectrum of weed grasses and broad-leaved weeds.
as §1, §2, §4

Lamium ssp. = assay: Example 16 field trial, post-emergence, 2- to 3-leaf stage: herbicidal effect; format: in vivo; details: 180 g of ai/ha; 69 days after application
Description: as §1, §2, §4

Galium aparine [12] = assay: as above; format: in vivo; details: 180 g of ai/ha; 69 days after application
Description: as §1, §2, §4

Papaver rhoeas [13] = assay: as above; format: in vivo; details: 180 g of ai/ha; 69 days after application
Description: as §1, §2, §4

Matricaria chamomilla = assay: as above; format: in vivo; details: 180 g of ai/ha; 69 days after application
Description: as §1, §2, §4

Anthemis arvensis = assay: as above; format: in vivo; details: 180 g of ai/ha; 69 days after application
Description: as §1, §2, §4

Viola arvensis [14] = assay: as above; format: in vivo; details: 180 g of ai/ha; 69 days after application
Description: as §1, §2, §4

Myosotis arvensis = assay: as above; format: in vivo; details: 180 g of ai/ha; 69 days after application
Description: as §1, §2, §4

Galium aparine [15] = assay: Example 10 pre-emergence application, fall: herbicidal effect; format: in vivo; details: 180 g of ai/ha; 169 days after application
Text: as §6, §1, §2, §4

winter wheat [16] = assay: Example 16 field trial, post-emergence, 2- to 3-leaf stage: crop damage; format: in vivo, Triticum aestivum; details: in vivo
Description: as §1, §2, §5

winter barley [17] = assay: as above; format: in vivo, Hordeum vulgare; details: in vivo
Description: as §1, §2, §5

CP(=O)(O)CCC(N)C(=O)O (stereo not drawn) [(B4.1.2), glufosinate monoammonium salt]
damage, Corn (LL) ([1]; 300 g of ai/ha): 0%
damage, Corn (LL) ([1]; 600 g of ai/ha): 0%
herbicidal effect, ELEIN (Elusine indica; 300 g of ai/ha): 55%
herbicidal effect, ELEIN (Elusine indica; 600 g of ai/ha): 78%

CC(COc1cccc(Cl)c1)Nc1nc(N)nc(C(C)(C)F)n1 (stereo not drawn) [(A4), 4-amino-6-(1-fluoro-1-methylethyl)-2-[2-(3-chlorophenoxy)-1-methylethyl-amino]-1,3,5-triazine]
damage, HORVW (winter barley [2]; 25 g of ai/ha): 0%
damage, HORVW (winter barley [2]; 50 g of ai/ha): 0%
damage, HORVW (winter barley [2]; 100 g of ai/ha): 0%
herbicidal effect, Aphanes arvensis (Aphanes arvensis): 20%
herbicidal effect, Veronica hederifolia (Veronica hederifolia): 40%
damage, HORVW (winter barley [3]; 50 g of ai/ha): 0%
damage, HORVW (winter barley [3]; 100 g of ai/ha): 0%
damage, TRZAW (winter wheat [4]; 50 g of ai/ha): 0%
damage, TRZAW (winter wheat [4]; 100 g of ai/ha): 0%
herbicidal effect, PAPRH (Papaver rhoeas [5]; 25 g of ai/ha): 0%
herbicidal effect, PAPRH (Papaver rhoeas [5]; 50 g of ai/ha): 0%
herbicidal effect, PAPRH (Papaver rhoeas [5]; 100 g of ai/ha): 0%
herbicidal effect, VIOAR (Viola arvensis [6]; 50 g of ai/ha): 78%
herbicidal effect, VIOAR (Viola arvensis [6]; 100 g of ai/ha): 88%
damage, HORVW (winter barley [7]; 50 g of ai/ha): 0%
damage, HORVW (winter barley [7]; 100 g of ai/ha): 0%
herbicidal effect, PAPRH (Papaver rhoeas [8]; 50 g of ai/ha): 0%
herbicidal effect, PAPRH (Papaver rhoeas [8]; 100 g of ai/ha): 0%
damage, TRZAW (winter wheat [9]): 0%
herbicidal effect, PAPRH (Papaver rhoeas [10]; 50 g of ai/ha): 0%
herbicidal effect, PAPRH (Papaver rhoeas [10]; 100 g of ai/ha): 0%

CC(C)N(C(=O)COc1nnc(C(F)(F)F)s1)c1ccc(F)cc1 [(B1.2.1), fluthiamide, reference compound]
damage, TRZAW (winter wheat [11]): 2%
herbicidal effect (%), LAMSS (Lamium ssp.): 87%
herbicidal effect (%), GALAP (Galium aparine [12]): 68%
herbicidal effect (%), PAPRH (Papaver rhoeas [13]): 12%
herbicidal effect (%), MATCH (Matricaria chamomilla): 61%
herbicidal effect (%), ANTAR (Anthemis arvensis): 25%
herbicidal effect (%), VIOAR (Viola arvensis [14]): 20%
herbicidal effect (%), MYOAR (Myosotis arvensis): 16%
herbicidal effect, GALAP (Galium aparine [15]): 45%
herbicidal effect (%), TRZAW (crop) (winter wheat [16]): 0%
herbicidal effect (%), HORVW (crop) (winter barley [17]): 0%
